molecular target: T1, HDM2 (Homo sapiens, UniProt Q00987); test: HDM2 FRET assay (inhibition of binding of FITC labeled p53-pocket peptide to HDM2); conditions: 0.5 nM HDM2 (residues 17 to 125), 3nM peptide, two hour incubation at room temperature; read-out: FRET IC50
T1 construct: Thioredoxin (N); made in house; host or cells: E. coli strain BL21(DE3)Rosetta
In short: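 Final: 0.5 nM His-HDM2, 3 nM FITC peptide, 0.25 nM Tb anti-His Ab; PBS, 0.01% BSA, 0.01% Tween-20; 0.1% DMSO.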

T1 sequence (Q00987 17-125): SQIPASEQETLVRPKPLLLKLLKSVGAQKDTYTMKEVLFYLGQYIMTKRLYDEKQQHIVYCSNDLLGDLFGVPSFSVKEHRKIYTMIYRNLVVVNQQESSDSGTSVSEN

Structure (SMILES) | IC50 [nM]
C[C@@H](Nc1nc(-c2nnn(C)n2)nc2nc(N3CCOC[C@H]3c3ccccc3)n(C[C@H]3CC[C@H](C)CC3)c12)C1CCC1 [Example 12.11, N-[(1R)-1-cyclobutylethyl]-7-[(trans-4-methylcyclohexyl)methyl]-2-(2-methyl-2H-tetrazol-5-yl)-8-[(3R)-3-phenylmorpholin-4-yl]-7H-purin-6-amine] | 32.5
C[C@@H](Nc1nc(-c2nnnn2C)nc2nc(N3CCOC[C@H]3c3ccccc3)n(C[C@H]3CC[C@H](C)CC3)c12)C1CCC1 [Example 12.12, N-[(1R)-1-cyclobutylethyl]-7-[(trans-4-methylcyclohexyl)methyl]-2-(1-methyl-1H-tetrazol-5-yl)-8-[(3R)-3-phenylmorpholin-4-yl]-7H-purin-6-amine] | 27.3
COC(=O)c1nc(N[C@H](C)C2CCC2)c2c(n1)nc(N1CCOC[C@H]1c1ccccc1)n2C[C@H]1CC[C@H](C)CC1 [Example 12.13, Methyl-6-{[(1R)-1-cyclobutylethyl]amino}-7-[(trans-4-methylcyclohexyl)methyl]-8-[(3R)-3-phenylmorpholin-4-yl]-7H-purine-2-carboxylate] | 49.4
C[C@@H](Nc1nc(C(C)(C)O)nc2nc(N3CCOC[C@H]3c3ccccc3)n(C[C@H]3CC[C@H](C)CC3)c12)C1CCC1 [Example 12.14, 2-(6-{[(1R)-1-cyclobutylethyl]amino}-7-[(trans-4-methylcyclohexyl)methyl]-8-[(3R)-3-phenylmorpholin-4-yl]-7H-purine-2-yl)propan-2-ol] | 107
C[C@@H](Nc1nc(-c2n[nH]c(=O)n2C)nc2nc(N3CCOC[C@H]3c3ccccc3)n(C[C@H]3CC[C@H](C)CC3)c12)C1CCC1 [Example 12.15, 5-(6-{[(1R)-1-cyclobutylethyl]amino}-7-[(trans-4-methylcyclohexyl)methyl]-8-[(3R)-3-phenylmorpholin-4-yl]-7H-purin-2-yl)-4-methyl-2,4-dihydro-3H-1,2,4-triazol-3-one] | 14.5
C[C@@H](Nc1nc(-c2nnc[nH]2)nc2nc(N3CCOC[C@H]3c3ccccc3)n(C[C@H]3CC[C@H](C)CC3)c12)C1CCC1 [Example 12.16, N-[(1R)-1-cyclobutylethyl]-7-[(trans-4-methylcyclohexyl)methyl]-8-[(3R)-3-phenylmorpholin-4-yl]-2-(4H-1,2,4-triazol-3-yl)-7H-purin-6-amine] | 10.8
CCNC(=O)c1nc(N[C@H](C)C2CCC2)c2c(n1)nc(N1CCOC[C@H]1c1ccccc1)n2C[C@H]1CC[C@H](C)CC1 [Example 12.17, 6-{[(1R)-1-cyclobutylethyl]amino}-N-ethyl-7-[(trans-4-methylcyclohexyl)methyl]-8-[(3R)-3-phenylmorpholin-4-yl]-7H-purine-2-carboxamide] | 1.63
C[C@@H](Nc1nc(C(=O)NS(C)(=O)=O)nc2nc(N3CCOC[C@H]3c3ccccc3)n(C[C@H]3CC[C@H](C)CC3)c12)C1CCC1 [Example 12.18, 6-{[(1R)-1-cyclobutylethyl]amino}-7-[(trans-4-methylcyclohexyl)methyl]-N-(methylsulfonyl)-8-[(3R)-3-phenylmorpholin-4-yl]-7H-purine-2-carboxamide] | 0.585
C[C@@H](Nc1nc(-c2nc(=O)n(C)[nH]2)nc2nc(N3CCOC[C@H]3c3ccccc3)n(C[C@H]3CC[C@H](C)CC3)c12)C1CCC1 [Example 12.19, 5-(6-{[(1R)-1-cyclobutylethyl]amino}-7-[(trans-4-methylcyclohexyl)methyl]-8-[(3R)-3-phenylmorpholin-4-yl]-7H-purine-2-yl)-2-methyl-2,4-dihydro-3H-1,2,4-triazol-3-one] | 1.61
C[C@@H](Nc1nc(C(O)CO)nc2nc(N3CCOC[C@H]3c3ccccc3)n(C[C@H]3CC[C@H](C)CC3)c12)C1CCC1 (stereo partly drawn) [Example 12.20, 1-(6-(((R)-1-cyclobutylethyl)amino)-7-((trans-4-methylcyclohexyl)methyl)-8-((R)-3-phenylmorpholino)-7H-purin-2-yl)ethane-1,2-diol] | 49.4
CC(=O)c1nc(N[C@H](C)C2CCC2)c2c(n1)nc(N1CCOC[C@H]1c1ccccc1)n2C[C@H]1CC[C@H](C)CC1 [Example 12.21, 1-(6-{[(1R)-1-cyclobutylethyl]amino}-7-[(trans-4-methylcyclohexyl)methyl]-8-[(3R)-3-phenylmorpholin-4-yl]-7H-purin-2-yl)ethanone] | 53.3
C[C@@H](Nc1nc(CO)nc2nc(N3CCOC[C@H]3c3ccccc3)n(C[C@H]3CC[C@H](C)CC3)c12)C1CCC1 [Example 12.22, (6-{[(1R)-1-cyclobutylethyl]amino}-7-[(trans-4-methylcyclohexyl)methyl]-8-[(3R)-3-phenylmorpholin-4-yl]-7H-purin-2-yl)methanol] | 78.6
CC(=O)c1nc(N[C@H](C)C2CCC2)c2c(n1)nc(N1CCOC[C@H]1c1ccccc1)n2C[C@H]1CC[C@H](C)CC1 [Example 12.23, 1-(6-{[(1R)-1-cyclobutylethyl]amino}-7-[(trans-4-methylcyclohexyl)methyl]-8-[(3R)-3-phenylmorpholin-4-yl]-7H-purin-2-yl)ethanone] | 53.3
C[C@@H](Nc1nc(C(=O)NS(=O)(=O)N(C)C)nc2nc(N3CCOC[C@H]3c3ccccc3)n(C[C@H]3CC[C@H](C)CC3)c12)C1CCC1 [Example 12.24, 6-{[(1R)-1-cyclobutylethyl]amino}-N-(dimethylsulfamoyl)-7-[(trans-4-methylcyclohexyl)methyl]-8-[(3R)-3-phenylmorpholin-4-yl]-7H-purine-2-carboxamide] | 1.41
Cc1cccc(-c2nc3nc(C(=O)NS(C)(=O)=O)nc(N[C@H](C)C4CC4)c3n2Cc2ccc(C(F)(F)F)cc2)c1 [Example 12.25, 6-{[(1R)-1-cyclopropylethyl]amino}-8-(3-methylphenyl)-N-(methylsulfonyl)-7-[4-(trifluoromethyl)benzyl]-7H-purine-2-carboxamide] | 1070
Cc1cccc(-c2nc3nc(-c4nnn[nH]4)nc(N[C@H](C)C4CC4)c3n2Cc2ccc(C(F)(F)F)cc2)c1 [Example 12.26, N-[(1R)-1-cyclopropylethyl]-8-(3-methylphenyl)-2-(1H-tetrazol-5-yl)-7-[4-(trifluoromethyl)benzyl]-7H-purin-6-amine] | 53
Cc1cccc(-c2nc3nc(C(N)=O)nc(N[C@H](C)C4CC4)c3n2Cc2ccc(C(F)(F)F)cc2)c1 [Example 12.27, 6-{[(1R)-1-cyclopropylethyl]amino}-8-(3-methylphenyl)-7-[4-(trifluoromethyl)benzyl]-7H-purine-2-carboxamide] | 2040
Cc1cccc(-c2nc3nc(-c4nc[nH]n4)nc(N[C@H](C)C4CC4)c3n2Cc2ccc(C(F)(F)F)cc2)c1 [Example 12.28, N-[(1R)-1-cyclopropylethyl]-8-(3-methylphenyl)-2-(1H-1,2,4-triazol-3-yl)-7-[4-(trifluoromethyl)benzyl]-7H-purin-6-amine] | 314
Cc1cccc(-c2nc3nc(C(N)=O)nc(N[C@H](C)C4CCC4)c3n2Cc2ccc(C(F)(F)F)cc2)c1 [Example 12.29, 6-{[(1R)-1-cyclobutylethyl]amino} -8-(3-methylphenyl)-7-[4-(trifluoromethyl)benzyl]-7H-purine-2-carboxamide] | 1410
CNC(=O)c1nc(N[C@H](C)C2CCC2)c2c(n1)nc(-c1cccc(C)c1)n2Cc1ccc(C(F)(F)F)cc1 [Example 12.30, 6-{[(1R)-1-cyclobutylethyl]amino}-N-methyl-8-(3-methylphenyl)-7-[4-(trifluoromethyl)benzyl]-7H-purine-2-carboxamide] | 873
CONC(=O)c1nc(N[C@H](C)C2CCC2)c2c(n1)nc(-c1cc(C(C)C)ccn1)n2Cc1ccc(C(F)(F)F)cc1 [Example 12.32, 6-{[(1R)-1-cyclobutylethyl]amino}-N-methoxy-8-[4-(1-methylethyl)pyridin-2-yl]-7-[4-(trifluoromethyl)benzyl]-7H-purine-2-carboxamide] | 42.5
C[C@@H](Nc1nc(CO)nc2nc(N3CCOC[C@H]3c3ccccc3)n(Cc3ccc(C(F)(F)F)cc3)c12)C1CCC1 [Example 12.33, (6-{[(1R)-1-cyclobutylethyl]amino}-8-[(3R)-3-phenylmorpholin-4-yl]-7-[4-(trifluoromethyl)benzyl]-7H-purin-2-yl)methanol] | 151
CC(C)c1ccnc(-c2nc3nc(CO)nc(N[C@H](C)C4CCC4)c3n2C[C@H]2CC[C@H](C)CC2)c1 [Example 12.34, (6-{[(1R)-1-cyclobutylethyl]amino}-7-[(trans-4-methylcyclohexyl)methyl]-8-[4-(1-methylethyl)pyridin-2-yl]-7H-purin-2-yl)methanol] | 301
C[C@@H](Nc1nc(NCCO)nc2nc(N3CCOC[C@H]3c3ccccc3)n(C[C@H]3CC[C@H](C)CC3)c12)C1CCC1 [Example 13.1, 2-((6-(((R)-1-cyclobutylethyl)amino)-7-((trans-4-methylcyclohexyl)methyl)-8-((R)-3-phenylmorpholino)-7H-purin-2-yl)amino)ethanol] | 885
C[C@@H](Nc1nc(N2CCC[C@H]2C(=O)O)nc2nc(N3CCOC[C@H]3c3ccccc3)n(C[C@H]3CC[C@H](C)CC3)c12)C1CCC1 [Example 13.2, 1-(6-{[(1R)-1-cyclobutylethyl]amino}-7-[(trans-4-methylcyclohexyl)methyl]-8-[(3R)-3-phenylmorpholin-4-yl]-7H-purin-2-yl)-L-proline] | 987

same assay, conditions: read-out: % inh. at 1000 nM; at 1000 nM compound

Structure (SMILES) | inhibition at 1 µM [%]
CC(C)c1ccnc(-c2nc3nc(CNC(=O)C(F)(F)F)nc(N[C@H](C)C4CCC4)c3n2C[C@H]2CC[C@H](C)CC2)c1 [Example 12.10, N-[(6-{[(1R)-1-cyclobutylethyl]amino}-7-[(trans-4-methylcyclohexyl)methyl]-8-[4-(propan-2-yl)pyridin-2-yl]-7H-purin-2-yl)methyl]-2,2,2-trifluoroacetamide] | 30

From EP2951180B1, “2,6,7,8 SUBSTITUTED PURINES AS HDM2 INHIBITORS” (Merck Sharp & Dohme Corp., priority 2013, dated 2014)
